Reference: PubChem BioAssay AID248 (DTP/NCI, 2004)
“And” between values parts separate entries of the source, which are not always exact repeats. Equal entries are not always repeated. Inconclusive results and toxic doses are left out.

System: L1210 leukemia ip in BDF1 mice, survival T/C
Experiment: NCI In Vivo Anticancer Drug Screen. Data for tumor model L1210 Leukemia (intraperitoneal) in B6D2F1 (BDF1) mice
Details: higher = longer survival
Outline: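 Each compound was tested against a transplantable tumor grown in mice. The endpoint was survival, with treated animals benchmarked against vehicle controls as a simple ratio.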

`S=C(Nc1ccc(C2=NCCN2)cc1)c1ccc(C(=S)Nc2ccc(C3=NCCN3)cc2)cc1` was tested, and the T/C (endpoint: mean survival time, dose: 1.0 mg/kg/injection, schedule: Q01DX Z (ip), vehicle: saline) was 108 % of control, the T/C (endpoint: mean survival time, dose: 2.0 mg/kg/injection, schedule: Q01DX Z (ip), vehicle: saline) was 108 % of control and the T/C (endpoint: mean survival time, dose: 4.0 mg/kg/injection, schedule: Q01DX Z (ip), vehicle: saline) was 124 % of control. The T/C (endpoint: mean survival time, dose: 15.0 mg/kg/injection, schedule: Q01DX Z (ip), vehicle: carboxymethylcellulose (CMC)) was 219 % of control, the T/C (endpoint: mean survival time, dose: 30.0 mg/kg/injection, schedule: Q01DX Z (ip), vehicle: carboxymethylcellulose (CMC)) was 182 % of control and the T/C (endpoint: mean survival time, dose: 30.0 mg/kg/injection, schedule: Q01DX Z (oral), vehicle: saline) was 103 % of control. For the same compound, the T/C (endpoint: mean survival time, dose: 60.0 mg/kg/injection, schedule: Q01DX Z (ip), vehicle: carboxymethylcellulose (CMC)) was 171 % of control, the T/C (endpoint: mean survival time, dose: 60.0 mg/kg/injection, schedule: Q01DX Z (oral), vehicle: saline) was 101 % of control and the T/C (endpoint: mean survival time, dose: 120.0 mg/kg/injection, schedule: Q01DX Z (oral), vehicle: saline) was 98 % of control. The T/C (endpoint: mean survival time, dose: 240.0 mg/kg/injection, schedule: Q01DX Z (oral), vehicle: saline) was 101 % of control, the T/C (endpoint: mean survival time, dose: 480.0 mg/kg/injection, schedule: Q01DX Z (oral), vehicle: saline) was 101 % of control and the T/C (endpoint: mean survival time, dose: 960.0 mg/kg/injection, schedule: Q01DX Z (oral), vehicle: saline) was 101 % of control.
`O=C(Cl)C12CC3CC(CC(C3)C1)C2` was tested, and the T/C (endpoint: mean survival time, dose: 100.0 mg/kg/injection, schedule: Q04DX002 (ip), vehicle: Klucel (hydroxypropylcellulose) (HPC)) was 111 % of control, the T/C (endpoint: mean survival time, dose: 200.0 mg/kg/injection, schedule: Q04DX002 (ip), vehicle: Klucel (hydroxypropylcellulose) (HPC)) was 111 % of control and the T/C (endpoint: mean survival time, dose: 400.0 mg/kg/injection, schedule: Q04DX002 (ip), vehicle: Klucel (hydroxypropylcellulose) (HPC)) was 100 % of control.
In the case of `CC1OC(OC2C(O)CC(OC3C(O)CC(OC4CCC5(C)C(CCC6C5CCC5(C)C(C7=CC(=O)OC7)CCC65O)C4)OC3C)OC2C)CC(O)C1O` (stereo not drawn), the T/C (endpoint: mean survival time, dose: 1.0 mg/kg/injection, schedule: Q01DX015 (sc), vehicle: steriod suspending solution) is reported as 93 % of control, the T/C (endpoint: mean survival time, dose: 2.0 mg/kg/injection, schedule: Q01DX015 (sc), vehicle: steriod suspending solution) is reported as 98 % of control and the T/C (endpoint: mean survival time, dose: 4.0 mg/kg/injection, schedule: Q01DX015 (sc), vehicle: steriod suspending solution) is reported as 101 % of control. The T/C (endpoint: mean survival time, dose: 8.0 mg/kg/injection, schedule: Q01DX015 (sc), vehicle: steriod suspending solution) was 102 % of control, the T/C (endpoint: mean survival time, dose: 10.0 mg/kg/injection, schedule: Q01DX001 (ip), vehicle: saline) was 106 % of control and the T/C (endpoint: mean survival time, dose: 16.0 mg/kg/injection, schedule: Q01DX015 (sc), vehicle: steriod suspending solution) was 105 % of control. For the same compound, the T/C (endpoint: mean survival time, dose: 20.0 mg/kg/injection, schedule: Q01DX001 (ip), vehicle: saline) was 105 % of control, the T/C (endpoint: mean survival time, dose: 32.0 mg/kg/injection, schedule: Q01DX015 (sc), vehicle: steriod suspending solution) was 101 % of control and the T/C (endpoint: mean survival time, dose: 40.0 mg/kg/injection, schedule: Q01DX001 (ip), vehicle: saline) was 103 % of control. The T/C (endpoint: median survival time, dose: 0.5 mg/kg/injection, schedule: Q01DX005 (iv), vehicle: water) was 99 % of control, the T/C (endpoint: median survival time, dose: 0.5 mg/kg/injection, schedule: Q01DX010 (ip), vehicle: methylcellulose (MC)) was 91 % of control and the T/C (endpoint: median survival time, dose: 0.5 mg/kg/injection, schedule: Q01DX010 (ip), vehicle: water) was 99 % of control and 100 % of control. The T/C (endpoint: median survival time, dose: 1.0 mg/kg/injection, schedule: Q01DX005 (iv), vehicle: water) was 99 % of control, the T/C (endpoint: median survival time, dose: 1.0 mg/kg/injection, schedule: Q01DX010 (ip), vehicle: methylcellulose (MC)) was 102 % of control and the T/C (endpoint: median survival time, dose: 1.0 mg/kg/injection, schedule: Q01DX010 (ip), vehicle: water) was 99 % of control and 100 % of control. The T/C (endpoint: median survival time, dose: 1.0 mg/kg/injection, schedule: Q04DX003 (ip), vehicle: water) was 99 % of control and 100 % of control, the T/C (endpoint: median survival time, dose: 1.0 mg/kg/injection, schedule: Q04DX003 (iv), vehicle: water) was 96 % of control and the T/C (endpoint: median survival time, dose: 2.0 mg/kg/injection, schedule: Q01DX005 (ip), vehicle: water) was 95 % of control. The T/C (endpoint: median survival time, dose: 2.0 mg/kg/injection, schedule: Q01DX005 (iv), vehicle: water) was 100 % of control, the T/C (endpoint: median survival time, dose: 2.0 mg/kg/injection, schedule: Q01DX010 (ip), vehicle: methylcellulose (MC)) was 104 % of control and the T/C (endpoint: median survival time, dose: 2.0 mg/kg/injection, schedule: Q01DX010 (ip), vehicle: water) was 105 % of control and 111 % of control. For the same compound, the T/C (endpoint: median survival time, dose: 2.0 mg/kg/injection, schedule: Q04DX003 (ip), vehicle: water) was 95 % of control, the T/C (endpoint: median survival time, dose: 2.0 mg/kg/injection, schedule: Q04DX003 (iv), vehicle: water) was 92 % of control and the T/C (endpoint: median survival time, dose: 4.0 mg/kg/injection, schedule: Q01DX005 (ip), vehicle: water) was 109 % of control. The T/C (endpoint: median survival time, dose: 4.0 mg/kg/injection, schedule: Q01DX005 (iv), vehicle: water) was 106 % of control, the T/C (endpoint: median survival time, dose: 4.0 mg/kg/injection, schedule: Q01DX010 (ip), vehicle: methylcellulose (MC)) was 103 % of control and the T/C (endpoint: median survival time, dose: 4.0 mg/kg/injection, schedule: Q01DX010 (ip), vehicle: water) was 102 % of control and 105 % of control. For the same compound, the T/C (endpoint: median survival time, dose: 4.0 mg/kg/injection, schedule: Q04DX003 (ip), vehicle: water) was 100 % of control, the T/C (endpoint: median survival time, dose: 4.0 mg/kg/injection, schedule: Q04DX003 (iv), vehicle: water) was 93 % of control and the T/C (endpoint: median survival time, dose: 8.0 mg/kg/injection, schedule: Q01DX005 (ip), vehicle: water) was 113 % of control. For the same compound, the T/C (endpoint: median survival time, dose: 8.0 mg/kg/injection, schedule: Q01DX005 (iv), vehicle: water) was 86 % of control, the T/C (endpoint: median survival time, dose: 8.0 mg/kg/injection, schedule: Q01DX010 (ip), vehicle: water) was 102 % of control and 105 % of control and the T/C (endpoint: median survival time, dose: 8.0 mg/kg/injection, schedule: Q04DX003 (ip), vehicle: water) was 86 % of control. For the same compound, the T/C (endpoint: median survival time, dose: 8.0 mg/kg/injection, schedule: Q04DX003 (iv), vehicle: water) was 93 % of control, the T/C (endpoint: median survival time, dose: 16.0 mg/kg/injection, schedule: Q01DX010 (ip), vehicle: water) was 93 % of control and 94 % of control and the T/C (endpoint: median survival time, dose: 16.0 mg/kg/injection, schedule: Q04DX003 (ip), vehicle: water) was 93 % of control. The T/C (endpoint: median survival time, dose: 16.0 mg/kg/injection, schedule: Q04DX003 (iv), vehicle: water) was 68 % of control.
In the case of `CC(C)C1NC(=O)NC1=O` (stereo not drawn), the T/C (endpoint: mean survival time, dose: 100.0 mg/kg/injection, schedule: Q01DX009 (ip), vehicle: saline) is reported as 98 % of control, the T/C (endpoint: mean survival time, dose: 100.0 mg/kg/injection, schedule: Q04DX003 (ip), vehicle: saline) is reported as 103 % of control and the T/C (endpoint: mean survival time, dose: 200.0 mg/kg/injection, schedule: Q01DX009 (ip), vehicle: saline) is reported as 105 % of control. For the same compound, the T/C (endpoint: mean survival time, dose: 200.0 mg/kg/injection, schedule: Q04DX003 (ip), vehicle: saline) was 101 % of control, the T/C (endpoint: mean survival time, dose: 400.0 mg/kg/injection, schedule: Q01DX009 (ip), vehicle: saline) was 103 % of control and the T/C (endpoint: mean survival time, dose: 400.0 mg/kg/injection, schedule: Q04DX003 (ip), vehicle: saline) was 97 % of control.
